This passage reports T/C results from PubChem BioAssay AID192 (DTP/NCI, 2004).

The experiment deals with BDF1 mice, B16 melanoma ip, median survival T/C. Put plainly: NCI In Vivo Anticancer Drug Screen. Data for tumor model B16 Melanoma (intraperitoneal) in B6D2F1 (BDF1) mice. The settings on record: endpoint: median survival time, higher = longer survival. An outline of the steps: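 Antitumor activity is assessed in mice bearing a transplanted tumor, with survival or tumor size compared against vehicle-dosed controls and expressed as T/C.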

Setting [1] is: dose: 100.0 mg/kg/injection, schedule: Q01DX009 (ip), vehicle: saline.
Setting [2] is: dose: 200.0 mg/kg/injection, schedule: Q01DX009 (ip), vehicle: saline.
[3] abbreviates: dose: 12.5 mg/kg/injection, schedule: Q01DX009 (ip), vehicle: Klucel (hydroxypropylcellulose) (HPC).
Setting [4] is: dose: 25.0 mg/kg/injection, schedule: Q01DX009 (ip), vehicle: Klucel (hydroxypropylcellulose) (HPC).
[5] abbreviates: dose: 50.0 mg/kg/injection, schedule: Q01DX009 (ip), vehicle: Klucel (hydroxypropylcellulose) (HPC).
Where [6] appears, read: dose: 25.0 mg/kg/injection, schedule: Q01DX009 (ip), vehicle: suspension in saline.
[7] abbreviates: dose: 50.0 mg/kg/injection, schedule: Q01DX009 (ip), vehicle: suspension in saline.
Setting [8] is: dose: 100.0 mg/kg/injection, schedule: Q01DX009 (ip), vehicle: Klucel (hydroxypropylcellulose) (HPC).
Where [9] appears, read: dose: 100.0 mg/kg/injection, schedule: Q04DX003 (ip), vehicle: Klucel (hydroxypropylcellulose) (HPC).
The mark [10] stands for this setting: dose: 200.0 mg/kg/injection, schedule: Q01DX009 (ip), vehicle: Klucel (hydroxypropylcellulose) (HPC).
Where [11] appears, read: dose: 200.0 mg/kg/injection, schedule: Q04DX003 (ip), vehicle: Klucel (hydroxypropylcellulose) (HPC).
The mark [12] stands for this setting: dose: 400.0 mg/kg/injection, schedule: Q01DX009 (ip), vehicle: Klucel (hydroxypropylcellulose) (HPC).
[13] abbreviates: dose: 400.0 mg/kg/injection, schedule: Q04DX003 (ip), vehicle: Klucel (hydroxypropylcellulose) (HPC).

SMILES strings stand for the structures. Where “and” joins values, the source holds several entries; their conditions need not be identical. Equal values may be shown once. Inconclusive results and toxic doses are left out.

`[Cl][Pt+2][Cl].[NH-]c1cc2ccccc2cc1[NH-]`: the T/C reads like this: (dose: 20.0 mg/kg/injection, schedule: Q01DX009 (ip), vehicle: saline with Tween-80) 113 % of control; (dose: 40.0 mg/kg/injection, schedule: Q01DX009 (ip), vehicle: saline with Tween-80) 122 % of control; (dose: 80.0 mg/kg/injection, schedule: Q01DX009 (ip), vehicle: saline with Tween-80) 120 % of control; (dose: 160.0 mg/kg/injection, schedule: Q01DX009 (ip), vehicle: saline with Tween-80) 87 % of control; (dose: 320.0 mg/kg/injection, schedule: Q01DX009 (ip), vehicle: saline with Tween-80) 118 % of control.
For `CCOC(CNC(=O)CC(C)=O)OCC`, the T/C by setting is: under setting [1], 110 % of control; under setting [2], 118 % of control; (dose: 400.0 mg/kg/injection, schedule: Q01DX009 (ip), vehicle: saline) 106 % of control.
On to `Cc1cccc(Nc2c(N)nc(N)nc2N)c1`, for which the T/C is 101 % of control under setting [3], 104 % of control under setting [4] and 106 % of control under setting [5].
As to `COc1cccnc1/C=N/NC(N)=S`, the T/C is 98 % of control (dose: 1.5 mg/kg/injection, schedule: Q01DX009 (ip), vehicle: saline with Tween-80); 93 % of control (dose: 3.0 mg/kg/injection, schedule: Q01DX009 (ip), vehicle: saline with Tween-80); 95 % of control (dose: 6.0 mg/kg/injection, schedule: Q01DX009 (ip), vehicle: saline with Tween-80); 98 % of control (dose: 12.0 mg/kg/injection, schedule: Q01DX009 (ip), vehicle: saline with Tween-80).
Consider `O=C(NO)c1ccccc1`, for which the T/C is, setting by setting: (dose: 12.5 mg/kg/injection, schedule: Q01DX009 (ip), vehicle: suspension in saline) 94 % of control; under setting [6], 95 % of control; (dose: 50.0 mg/kg/injection, schedule: Q01DX009 (ip), vehicle: saline) 97 % of control; under setting [7], 92 % of control; (dose: 50.0 mg/kg/injection, schedule: Q04DX003 (ip), vehicle: saline with Tween-80) 107 % of control; under setting [1], 97 % of control. The T/C is 92 % of control (dose: 100.0 mg/kg/injection, schedule: Q01DX009 (ip), vehicle: suspension in saline); 111 % of control (dose: 100.0 mg/kg/injection, schedule: Q04DX003 (ip), vehicle: saline with Tween-80); 102 % of control (dose: 178.0 mg/kg/injection, schedule: Q04DX003 (ip), vehicle: saline with Tween-80); 107 % of control under setting [2]; 108 % of control (dose: 200.0 mg/kg/injection, schedule: Q04DX003 (ip), vehicle: saline with Tween-80); 100 % of control (dose: 400.0 mg/kg/injection, schedule: Q04DX003 (ip), vehicle: saline with Tween-80). For the same compound, under “dose: 600.0 mg/kg/injection, schedule: Q04DX003 (ip), vehicle: saline with Tween-80”, the T/C was 100 % of control.
As to `Cc1c2cc[n+](C)c(C)c2cc2c1[nH]c1ccc(O)cc12`, the T/C is 117 % of control and 120 % of control (dose: 2.5 mg/kg/injection, schedule: Q04DX003 (ip), vehicle: water); 150 % of control (dose: 10.0 mg/kg/injection, schedule: Q04DX003 (ip), vehicle: water).
For the compound `COc1ccc(NC(=O)Oc2ccc(-c3ccccc3)cc2Br)cc1`, the T/C is, setting by setting: under setting [8], 93 % of control; under setting [9], 103 % of control; under setting [10], 93 % of control; under setting [11], 112 % of control; under setting [12], 96 % of control; under setting [13], 109 % of control.
For the compound `O=C(Nc1ccccc1)N(Cc1ccccc1)c1ccccc1`, the T/C by setting is: (dose: 50.0 mg/kg/injection, schedule: Q04DX009 (ip), vehicle: Klucel (hydroxypropylcellulose) (HPC)) 104 % of control; (dose: 100.0 mg/kg/injection, schedule: Q04DX009 (ip), vehicle: Klucel (hydroxypropylcellulose) (HPC)) 104 % of control; (dose: 200.0 mg/kg/injection, schedule: Q04DX003 (ip), vehicle: carboxymethylcellulose (CMC)) 105 % of control; (dose: 200.0 mg/kg/injection, schedule: Q04DX009 (ip), vehicle: Klucel (hydroxypropylcellulose) (HPC)) 93 % of control.
In the case of `O=C(Nc1cc(C(F)(F)F)ccc1Cl)c1ccc(Cl)cc1`, the T/C is 104 % of control under setting [8], 100 % of control under setting [10] and 103 % of control under setting [12].
On to `CC1CCC2N(C1)CC1C(C(O)C(O)C3(O)C1CC14OC5(O)C(O)CCC1(C)C5CC(O)C34)C2(C)O` (stereo unspecified), for which the T/C is, setting by setting: (dose: 16.25 mg/kg/injection, schedule: Q01DX009 (ip), vehicle: saline) 100 % of control; (dose: 37.5 mg/kg/injection, schedule: Q01DX009 (ip), vehicle: saline) 102 % of control; (dose: 65.0 mg/kg/injection, schedule: Q01DX009 (ip), vehicle: saline) 100 % of control; (dose: 130.0 mg/kg/injection, schedule: Q01DX009 (ip), vehicle: saline) 104 % of control.
For the compound `COc1cc2cc(c1Cl)N(C)C(=O)/C=C/C1(C)OC1C(C)C1CC(O)(NC(=O)O1)C(OC)C=C/C=C(\C)C2` (stereo unspecified), the T/C is, setting by setting: (dose: 1.3 micrograms/kg/injection, schedule: Q01DX009 (ip), vehicle: saline + alcohol) 100 % of control; (dose: 2.5 micrograms/kg/injection, schedule: Q01DX009 (ip), vehicle: saline + alcohol) 97 % of control; (dose: 5.0 micrograms/kg/injection, schedule: Q01DX009 (ip), vehicle: saline + alcohol) 97 % of control; (dose: 10.0 micrograms/kg/injection, schedule: Q01DX009 (ip), vehicle: saline + alcohol) 92 % of control.
Take `O=C(O)c1ccc2sc3ccccc3c(=O)c2c1`: the T/C is, setting by setting: (dose: 75.0 mg/kg/injection, schedule: Q01DX009 (ip), vehicle: Klucel (hydroxypropylcellulose) (HPC)) 100 % of control; (dose: 150.0 mg/kg/injection, schedule: Q01DX009 (ip), vehicle: Klucel (hydroxypropylcellulose) (HPC)) 96 % of control; (dose: 300.0 mg/kg/injection, schedule: Q01DX009 (ip), vehicle: Klucel (hydroxypropylcellulose) (HPC)) 96 % of control.
For the compound `CC(=O)CC(c1ccccc1)c1c(O)c2ccccc2oc1=O` (stereo unspecified), the T/C (dose: 0.05 mg/kg/injection, schedule: Q01DX009 (ip), vehicle: saline with Tween-80) is 107 % of control; the T/C (dose: 0.1 mg/kg/injection, schedule: Q01DX009 (ip), vehicle: saline with Tween-80) is 98 % of control; the T/C (dose: 0.2 mg/kg/injection, schedule: Q01DX009 (ip), vehicle: saline with Tween-80) was 104 % of control; the T/C (dose: 0.8 mg/kg/injection, schedule: Q01DX009 (ip), vehicle: saline with Tween-80) was 90 % of control.
For the compound `Cc1c(NC=O)c(=O)n(-c2ccccc2)n1C`, the T/C was 100 % of control under setting [8], 100 % of control under setting [10] and 96 % of control under setting [12].
Regarding `CC[n+]1ccc(Nc2ccc(NC(=O)c3ccc(C(=O)Nc4ccc(Nc5cc[n+](CC)c(N)n5)cc4)cc3)cc2)nc1N`, the T/C under setting [6] was 162 % of control and the T/C under setting [7] is 163 % of control.
For `C[n+]1cccc(NC(=O)c2ccc(NC(=O)C34CCC(C(=O)Nc5ccc(C(=O)Nc6ccc[n+](C)c6)cc5)(CC3)CC4)cc2)c1`, the T/C (dose: 10.0 mg/kg/injection, schedule: Q01DX009 (ip), vehicle: saline with Tween-80) is 154 % of control.
As to `CCO/C=C1\SC(=S)N(c2cccc(C)c2)C1=O`, the T/C was 94 % of control under setting [3]; 97 % of control under setting [4]; 100 % of control under setting [5]; 87 % of control under setting [8]; 100 % of control under setting [9]; 89 % of control under setting [11]. The T/C under setting [13] was 92 % of control.
